The results in this text go back to article PMC9821843, “Powerful Potential of Polyfluoroalkyl-Containing 4-Arylhydrazinylidenepyrazol-3-ones for Pharmaceuticals” (Molecules, 2022).

Test [1] deals with T1, human erythrocyte acetylcholinesterase (AChE, EC 3.1.1.7) (Homo sapiens, UniProt P22303).
T1 construct: human erythrocyte acetylcholinesterase (AChE, EC 3.1.1.7); purchased Sigma-Aldrich (Saint Louis, MO, USA); host or cells: human erythrocytes
In words: Inhibition of human erythrocyte acetylcholinesterase (Ellman assay). It is filed as biochemical. To be noted: read-out: Inhibition % at 20 µM, Human AChE. The gist of the method:
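Colorimetric Ellman read-out with acetylthiocholine iodide substrate and DTNB, under standard reversible-inhibitor conditions, 2% (v/v) final DMSO. Enzyme-free blanks corrected for non-enzymatic hydrolysis; triplicate runs, IC50 from regression plots.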
Background: In Ellman's method for cholinesterases, released thiocholine reacts with DTNB.

Test [2] concerns the target T2, equine serum butyrylcholinesterase (BChE, EC 3.1.1.8) (Equus caballus, UniProt P81908).
T2 construct: equine serum butyrylcholinesterase (BChE, EC 3.1.1.8); purchased Sigma-Aldrich (Saint Louis, MO, USA); host or cells: equine serum
The test is described as follows: Inhibition of equine serum butyrylcholinesterase (Ellman assay). It is filed as biochemical. To be noted: read-out: Inhibition % at 20 µM, Equine BChE. The gist of the method: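 Ellman colorimetric assay with 0.02 unit/mL BChE, 1 mM butyrylthiocholine iodide and 0.33 mM DTNB, 2% (v/v) DMSO final; substrate added after enzyme-compound mixing. Residual activity versus inhibitor-free control, blanks without enzyme; triplicates, IC50 by linear regression.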

Test [3] addresses T3, porcine liver carboxylesterase (CES, EC 3.1.1.1) (Sus scrofa, UniProt Q29550). The test is described as follows: Porcine liver CES inhibition kinetics (Lineweaver-Burk). Type of test: biochemical. The conditions noted are these: mixed type inhibition; mean ± SEM. As to the method: To elucidate the inhibition mechanisms for active compounds, porcine liver CES residual activities were determined in the presence of 3 increasing concentrations of a test compound and 5–6 decreasing concentrations of the substrates. Test compounds were incubated with the enzymes at 25 °C for 5 min, followed by the addition of substrates. A parallel control was made for an assay of the rate of hydrolysis of the same concentrations of substrates in solutions with no inhibitor. Linear regression of 1/V versus 1/[S] double-reciprocal (Lineweaver-Burk) plots was used to determine the inhibition constants for the competitive component (Ki) and noncompetitive component (αKi).
(§1) Measurements were performed in a Bio-Rad Benchmark Plus microplate reader. Each experiment was performed in triplicate. Plots, linear regressions and values of IC50, were determined using Origin 6.1 for Windows, OriginLab (Northampton, MA, USA). Results were calculated using GraphPad Prism version 6.05 for Windows, GraphPad Software (La Jolla, CA, USA) and presented as mean ± SEM.

A short description of test [4]: Oxygen radical absorbance capacity (ORAC-FL) assay. The conditions noted are these: n.a. = inactive; i.t.s. = interferes with test system. The gist of the method:
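Fluorescein oxidative degradation by the peroxyl radical generator AAPH is monitored in the presence of test compound, a HAT-based read-out. Activity is expressed relative to Trolox as reference antioxidant.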

Test [5] addresses T3, porcine liver carboxylesterase (CES, EC 3.1.1.1). In words: Inhibition of porcine liver carboxylesterase (4-NPA colorimetric assay). It is filed as biochemical. To be noted: 20 µM; n.a. = inactive at 20 µM; mean ± SEM, n = 3.
Excerpt: The following enzymes were purchased from Sigma-Aldrich (Saint Louis, MO, USA): porcine liver carboxylesterase (CES, EC 3.1.1.1), human erythrocyte acetylcholinesterase (AChE, EC 3.1.1.7) and equine serum butyrylcholinesterase (BChE, EC 3.1.1.8). Substrates for CES, AChE and BChE were 4-nitrophenyl acetate (4-NPA), acetylthiocholine iodide (ATCh) and butyrylthiocholine iodide (BTCh), respectively, and the colorimetric reagent for the AChE and BChE assays was 5,5’-dithio-bis-(2-nitrobenzoic acid) (DTNB) (Sigma-Aldrich). All the kinetic experiments were performed under standard conditions, according to the protocol of IPAC RAS for a reversible inhibitors study.
The CES (porcine liver) activity was assessed colorimetrically in 0.1 M K/Na phosphate buffer pH 8.0, 25 °C, by measuring the absorbance of 4-nitrophenol at 405 nm. Final enzyme and substrate (4-NPA) concentrations were 0.02 unit/mL and 1 mM, respectively. Reagent blanks included all constituents except enzyme.
Test compounds were dissolved in DMSO. Reaction mixtures contained a final DMSO concentration of 2% (v/v). Enzyme inhibition was first assessed at a single concentration of 20 µM for each compound after a 5 min incubation at 25 °C in three separate experiments. […] Substrate was then added and residual enzyme activity relative to an inhibitor-free control was measured using a Bio-Rad Benchmark Plus microplate reader (Marnes-la-Coquette, France).
as §1

In test [6] the test system is Microsporum canis RCPF F 1643/1585. The test is described as follows: Antifungal susceptibility testing, M. canis. The conditions noted are these: for MIC: Microsporum canis, RCPFF1643/1585, read-out: MIC for fungi strains inhibition, M. canis.
Excerpt: (§2) The solvent was DMSO. […] In each test, a growth control and a sterility control were used.
Test [7] has as its system Candida albicans RCPF Y 401/NCTC 885/653. The test is described as follows: Antifungal susceptibility testing, C. albicans. To be noted: NCTC885, read-out: MIC for fungi strains inhibition, C. albicans.
Excerpt: as §2
Test [8] relates to Epidermophyton floccosum RCPF F 1659/17. In words: Antifungal susceptibility testing, E. floccosum. To be noted: for MIC: Epidermophyton floccosum, RCPFF1659/17, read-out: MIC for fungi strains inhibition, E. floccosum.
Excerpt: as §2

Values after ≈ are worked out from the molar mass of the structure shown.

T3 sequence (Q29550 19-566): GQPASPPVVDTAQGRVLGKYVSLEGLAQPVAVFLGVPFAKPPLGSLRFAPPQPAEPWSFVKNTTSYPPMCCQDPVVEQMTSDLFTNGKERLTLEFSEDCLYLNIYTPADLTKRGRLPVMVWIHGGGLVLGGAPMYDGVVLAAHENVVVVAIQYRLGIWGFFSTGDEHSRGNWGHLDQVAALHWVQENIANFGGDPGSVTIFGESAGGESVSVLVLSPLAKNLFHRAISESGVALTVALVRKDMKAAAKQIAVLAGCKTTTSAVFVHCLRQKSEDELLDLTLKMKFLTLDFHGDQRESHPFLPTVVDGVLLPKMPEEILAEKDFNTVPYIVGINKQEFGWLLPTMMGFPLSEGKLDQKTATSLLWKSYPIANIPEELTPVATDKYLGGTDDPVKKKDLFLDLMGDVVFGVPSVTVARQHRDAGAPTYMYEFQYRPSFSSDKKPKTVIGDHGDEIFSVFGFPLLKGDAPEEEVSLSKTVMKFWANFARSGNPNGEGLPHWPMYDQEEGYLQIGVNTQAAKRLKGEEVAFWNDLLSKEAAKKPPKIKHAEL
T2 sequence (P81908 whole entry): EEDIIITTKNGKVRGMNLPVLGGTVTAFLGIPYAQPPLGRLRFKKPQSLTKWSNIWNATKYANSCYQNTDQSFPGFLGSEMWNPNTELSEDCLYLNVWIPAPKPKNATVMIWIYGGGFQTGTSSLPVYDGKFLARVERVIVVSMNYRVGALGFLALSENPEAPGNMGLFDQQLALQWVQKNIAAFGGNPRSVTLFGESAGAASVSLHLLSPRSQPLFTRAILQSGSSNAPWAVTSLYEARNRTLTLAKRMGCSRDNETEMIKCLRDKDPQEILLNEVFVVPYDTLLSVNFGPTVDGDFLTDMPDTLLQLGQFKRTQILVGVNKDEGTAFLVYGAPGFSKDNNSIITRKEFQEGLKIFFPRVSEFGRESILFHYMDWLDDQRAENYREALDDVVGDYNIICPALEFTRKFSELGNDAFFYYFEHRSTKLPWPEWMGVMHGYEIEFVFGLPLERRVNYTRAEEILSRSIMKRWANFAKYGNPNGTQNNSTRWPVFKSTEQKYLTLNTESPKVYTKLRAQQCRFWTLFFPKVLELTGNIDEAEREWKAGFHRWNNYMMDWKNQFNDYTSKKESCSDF
T1 sequence (P22303 32-617 isoform P22303-2 limits assumed): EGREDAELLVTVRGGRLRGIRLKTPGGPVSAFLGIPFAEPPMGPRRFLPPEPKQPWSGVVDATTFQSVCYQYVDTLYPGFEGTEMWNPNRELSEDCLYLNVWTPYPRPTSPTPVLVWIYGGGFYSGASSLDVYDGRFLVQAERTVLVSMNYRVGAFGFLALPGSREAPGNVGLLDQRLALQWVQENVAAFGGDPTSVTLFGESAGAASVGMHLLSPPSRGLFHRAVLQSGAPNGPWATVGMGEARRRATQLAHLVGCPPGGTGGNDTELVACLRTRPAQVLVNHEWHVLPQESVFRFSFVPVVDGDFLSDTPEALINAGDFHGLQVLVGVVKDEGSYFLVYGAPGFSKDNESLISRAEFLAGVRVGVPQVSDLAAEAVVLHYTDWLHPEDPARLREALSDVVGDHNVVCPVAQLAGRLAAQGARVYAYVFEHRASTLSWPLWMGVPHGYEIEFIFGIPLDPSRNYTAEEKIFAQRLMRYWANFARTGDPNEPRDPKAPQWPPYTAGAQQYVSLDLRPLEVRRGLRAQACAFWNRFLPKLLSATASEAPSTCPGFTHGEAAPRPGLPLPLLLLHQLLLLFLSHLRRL

With `O=C1NN=C(C(F)(F)F)/C1=N/Nc1ccccc1` [5a, (Z)-4-(2-Phenylhydrazinylidene)-5-(trifluoromethyl)-2,4-dihydro-3H-pyrazol-3-one], the inhibition (as a rule, the relative decrease from the control value, in per cent) at 20 µM in test [1] worked out at 12.8 ± 2.3%; in test [2], 10.7 ± 1.8%. For the same compound, the “αKi (non-competitive inhibition constant), CES” value in test [3] was 0.255 ± 0.013 µM. For the same compound, the “ORAC-FL (TE, antioxidant activity in Trolox equivalents)” value (“ORAC-FL” below) in test [4] is 2.30 ± 0.20.
Compound `Cc1ccc(N/N=C2\C(=O)NN=C2C(F)(F)F)cc1` [5b, (4Z)-4-[2-(4-Methylphenyl)hydrazinylidene]-5-(trifluoromethyl)-2,4-dihydro-3H-pyrazol-3-one] showed an inhibition at 20 µM in test [5] of 10.1 ± 1.7%. For the same compound, in test [4], the “ORAC-FL” value was found to be 2.37 ± 0.32. The MIC (usually the least concentration at which growth counts as inhibited) is 100 mg/L (≈ 370 µM) in test [6], 200 mg/L (≈ 740 µM) in test [7] and greater than 200 mg/L in test [8].
With `O=C1NN=C(C(F)(F)F)/C1=N/Nc1ccc(Br)cc1` [5c, (4Z)-4-[2-(4-Bromophenyl)hydrazinylidene]-5-(trifluoromethyl)-2,4-dihydro-3H-pyrazol-3-one], the inhibition at 20 µM in test [5] turned out to be 5.5 ± 0.9%; in test [1], 3.4 ± 0.6%; in test [2], 5.9 ± 1%. For the same compound, the “ORAC-FL” value in test [4] is recorded as 1.73 ± 0.21. Besides, in test [6], the “MIC for fungi strains inhibition, M. canis” value is 25 mg/L. In addition, the minimum inhibitory concentration (MIC) was 25 mg/L (≈ 74.6 µM) in test [6], greater than 200 mg/L in test [7] and 12.5 mg/L (≈ 37.3 µM) in test [8]. The “MIC for fungi strains inhibition, E. floccosum” value in test [8] was 12.5 mg/L.
Take `Cc1ccc(N/N=C2\C(=O)N(C)N=C2C(F)(F)F)cc1` [5d, (4Z)-2-Methyl-4-[2-(4-methylphenyl)hydrazinylidene]-5-(trifluoromethyl)-2,4-dihydro-3H-pyrazol-3-one]: in test [1], the inhibition at 20 µM was 4.5 ± 1.1%. In addition, the “αKi (non-competitive inhibition constant), CES” value in test [3] is on record as 3.98 ± 0.31 µM. Also, in test [4], the “ORAC-FL” value was determined as 1.27 ± 0.15. Also, the MIC in test [6] was 200 mg/L (≈ 704 µM); in test [7], greater than 200 mg/L; in test [8], 200 mg/L (≈ 704 µM).
For the compound `Cc1ccc(N/N=C2\C(=O)N(c3ccccc3)N=C2C(F)(F)F)cc1` [5f, (4Z)-4-[2-(4-Methylphenyl)hydrazinylidene]-2-phenyl-5-(trifluoromethyl)-2,4-dihydro-3H-pyrazol-3-one], the “αKi (non-competitive inhibition constant), CES” value in test [3] is recorded as 0.735 ± 0.007 µM. For the same compound, in test [4], the “ORAC-FL” value is given as “i.t.s”. For the same compound, the minimum inhibitory concentration (MIC) in test [6], in test [7] and in test [8] was 200 mg/L (≈ 578 µM) throughout.
In the case of `CS(=O)(=O)c1ccc(N/N=C2\C(=O)N(c3ccccc3)N=C2C(F)(F)F)cc1` [5m, (4Z)-4-(2-[4-(Methylsulfonyl)phenyl]hydrazinylidene)-2-phenyl-5-(trifluoromethyl)-2,4-dihydro-3H-pyrazol-3-one], the inhibition at 20 µM in test [5] worked out at 20.4 ± 1.6%; in test [1] it was 5.5 ± 0.5%; in test [2], 4 ± 1%. Moreover, in test [4], the “ORAC-FL” value is listed as “i.t.s”. For the same compound, the MIC in test [6], in test [7] and in test [8] was greater than 200 mg/L throughout.
On to `Cc1ccc(N/N=C2\C(=O)N(c3ccc(S(N)(=O)=O)cc3)N=C2C(F)(F)F)cc1` [5p, (4Z)-2-[4-(Aminosulfonyl)phenyl]-4-[2-(4-methylphenyl)hydrazinylidene]-5-(trifluoromethyl)-2,4-dihydro-3H-pyrazol-3-one], for which the inhibition at 20 µM in test [5] came out at 5.7 ± 1%; in test [2] it was 3.6 ± 0.9%. Moreover, the “ORAC-FL” value in test [4] is reported as “i.t.s”. The MIC in test [6], in test [7] and in test [8] was greater than 200 mg/L throughout.
For the compound `Cc1ccc(N/N=C2\C(=O)NN=C2C(F)(F)C(F)(F)F)cc1` [6a, (4Z)-4-[2-(4-Methylphenyl)hydrazinylidene]-5-(pentafluoroethyl)-2,4-dihydro-3H-pyrazol-3-one], the inhibition at 20 µM in test [5] came to 7.8 ± 1.4%; in test [2] it was 3.3 ± 0.9%. Besides, the “ORAC-FL” value in test [4] came to 2.67 ± 0.29.
On to `Cc1ccc(N/N=C2\C(=O)N(c3ccccc3)N=C2C(F)(F)C(F)(F)F)cc1` [6b, (4Z)-4-[2-(4-Methylphenyl)hydrazinylidene]-5-(pentafluoroethyl)-2-phenyl-2,4-dihydro-3H-pyrazol-3-one], for which the inhibition at 20 µM in test [1] was 8.3 ± 1.4%; in test [2] it was 5.7 ± 1.3%.
Consider `Cc1ccc(N/N=C2\C(=O)NN=C2C(F)(F)C(F)(F)C(F)(F)F)cc1` [7a, (4Z)-5-(Heptafluoropropyl)-4-[2-(4-methylphenyl)hydrazinylidene]-2,4-dihydro-3H-pyrazol-3-one], for which the inhibition at 20 µM came out at 9.9 ± 0.7% in test [5], 35.6 ± 0.8% in test [1] and 10.5 ± 1.1% in test [2]. Further, the “ORAC-FL” value in test [4] was found to be 2.80 ± 0.01. In addition, the MIC in test [6] was greater than 200 mg/L; in test [7], greater than 200 mg/L; in test [8] it was 200 mg/L (≈ 540 µM).
Take `Cc1ccc(N/N=C2\C(=O)N(c3ccccc3)N=C2C(F)(F)C(F)(F)C(F)(F)F)cc1` [7b, (4Z)-5-(Heptafluoropropyl)-4-[2-(4-methylphenyl)hydrazinylidene]-2-phenyl-2,4-dihydro-3H-pyrazol-3-one]: the inhibition at 20 µM stood at 12.6 ± 1.8% in test [1] and 4.5 ± 1.2% in test [2].
With `CC1=NNC(=O)/C1=N\Nc1ccc(C)cc1` [9a, (4Z)-5-Methyl-4-[2-(4-methylphenyl)hydrazinylidene]-2,4-dihydro-3H-pyrazol-3-one], the inhibition at 20 µM in test [2] was found to be 4.3 ± 1%. Besides, the “ORAC-FL” value in test [4] came out at 3.23 ± 0.50.
`CC1=NN(c2ccccc2)C(=O)/C1=N\Nc1ccc(C)cc1` [9b, (4Z)-5-Methyl-4-[2-(4-methylphenyl)hydrazinylidene]-2-phenyl-2,4-dihydro-3H-pyrazol-3-one] returned an inhibition at 20 µM in test [5] of 10.3 ± 2.4%. In test [4], the “ORAC-FL” value stood at 2.67 ± 0.58. In addition, the minimum inhibitory concentration (MIC) in test [6], in test [7] and in test [8] was greater than 200 mg/L in each case.
